One may read the AC50 as the concentration at which the activity in the assay is half-maximal.

The assay has as its system Plasmodium falciparum Dd2 asexual blood stage parasites. The assay can be described thus: microbe, parasite or virus in culture. Further details: species or system Plasmodium falciparum Dd2 in human erythrocytes; single determination (one 11-point concentration-response curve). As to conditions: Plasmodium falciparum, DD2, Erythrocyte, 72 h; read-out: AC50.
On to `CCOc1ccc(CCNC(=O)c2ccc3c(c2)N(Cc2ccccc2F)C(=O)c2ccccc2[S+]3[O-])cc1OCC` (stereo not drawn) [NCGC00109590-01], for which the AC50 was determined as 10.6 µM.

Consider `CCOC(=O)c1sc(NC(=O)C2c3ccccc3Oc3ccccc32)c(C(=O)OCC)c1C` [NCGC00100913-01], for which the AC50 was 2.66 µM.

For the compound `Cc1c(CN2CCN(CC(C)(C)C)C(CCO)C2)[nH]c2ccccc12` (stereo not drawn) [MLS001000590-01], the AC50 was 9.44 µM.

For the compound `Cc1ccc(CN2CCCN(Cc3ccncc3)C(c3ccccc3)CC(=O)NCC2)o1` (stereo not drawn) [NCGC00467180-01], the AC50 stood at 7.5 µM.

As for `Cc1nc(-c2ccc(F)cc2)n(CC(=O)Nc2cccc(Cl)c2)c(=O)c1CCO` [NCGC00470975-01], the half-maximal activity concentration (AC50) amounted to 15 µM.

For the compound `CC(C)c1nc2c(c(-c3ccc(O)cc3)n1)CN(Cc1cccc(F)c1)CC2` [NCGC00480376-01], the AC50 was 9.44 µM.

As for `O=C(c1cccs1)N1CCCCCC1CN1CCCC1` (stereo not drawn) [NCGC00456696-01], the AC50 is 10.6 µM.

Turning to `CCOC(=O)c1[nH]c(Cc2[nH]c(C(=O)OCC)c(C)c2CCC(=O)OC)c(CCC(=O)OC)c1C` [MLS000111116-01], the half-maximal activity concentration (AC50) came out at 5.31 µM.

For `COc1ccc(CCNc2nc3cc(OC)c(OC)cc3c3nc(-c4ccccc4)nn23)cc1OC` [NCGC00112847-01], the concentration at half-maximal activity (AC50) turned out to be 2.37 µM.

Consider `COc1cc(NC(=O)c2ccc(N)nc2)cc(C(=O)Nc2cccc(C(F)(F)F)c2)c1` [MLS003105961-01], for which the AC50 came to 5.31 µM.

Take `COCc1ccc2c(c1)c(OC(C)(C)C(=O)N1CCOCC1)nn2Cc1cccc(OC)c1` [NCGC00419580-01]: the AC50 stood at 8.41 µM.

For `COc1ccc(-c2c3c(nc4sc(C(=O)Nc5ccc(F)cc5)c(N)c24)CC(C)(C)CC3=O)cc1` [NCGC00100718-01], the concentration at half-maximal activity (AC50) came to 0.944 µM.

As for `CC(C(=O)N1CCCC1)N1CCN(S(=O)(=O)c2ccc(C(C)(C)C)cc2)CC1` (stereo not drawn) [MLS002156464-01], the concentration at half-maximal activity (AC50) amounted to 3.35 µM.

In the case of `COCCNC(=O)c1ccc(OC2CCN(C/C=C/c3ccc(F)cc3)CC2)c(Cl)c1` [NCGC00426935-01], the AC50 came to 10.6 µM.

`C[C@H]1[C@@H]2[C@@H](O)C([C@H](C)C(=O)NCc3cc(F)cc(F)c3)CC[C@@]2(C)CC[C@@H]1NC(=O)c1cncnc1` (stereo partly drawn) [NCGC00395377-01]: the AC50 is 4.22 µM.

For `CC(C)(C)OC(=O)N1CCC(c2c(C(=O)NCCN3CCc4ccccc4C3)cnn2-c2ccc(F)cc2F)CC1` [NCGC00127087-01], the AC50 was 5.31 µM.

For the compound `COc1ccc(CN2CCC(CO)(CCCc3ccccc3)CC2)c(Cl)c1OC` [NCGC00426399-01], the AC50 was found to be 8.41 µM.

On to `CC(C)[S+](=O)([O-])N1CCC(N2CC(OCC3CC3)C23CCCCC3)CC1` (stereo not drawn) [NCGC00463417-01], for which the AC50 was 15 µM.

With `CCC(Oc1ccccc1)C(=O)Nc1cc(C(F)(F)F)ccc1N1CCOCC1` (stereo not drawn) [MLS001099270-01], the AC50 was found to be 7.5 µM.

In the case of `CN(C)Cc1cc(C[C@@H]2C[C@H](NCc3ccccc3O)C2(C)C)no1` [NCGC00395458-01], the AC50 stood at 17.2 µM.

Consider `CCn1cc(C(=O)NCCCN2CCCC(C)C2)c(=O)c2cc([S+](=O)([O-])N(C)C3CCCCC3)ccc21` (stereo not drawn) [NCGC00109162-01], for which the half-maximal activity concentration (AC50) was 8.41 µM.

With `CC(C)(C)c1c[nH]c([C@@H]2COCCN2Cc2ccccc2O)n1` [NCGC00395090-01], the concentration at half-maximal activity (AC50) was 13.7 µM.

Turning to `COc1ccccc1NCc1cc(=O)oc2c(C)c(O)ccc12` [MLS001175266-01], the half-maximal activity concentration (AC50) is 5.96 µM.

For the compound `COc1ccc(CCN(C)/C(S)=N/c2cccc(C)c2)cc1OC` [MLS001177860-01], the AC50 is 2.11 µM.

Regarding `Cc1cc(Oc2c(C(F)(F)F)oc3c(CN4CCC(C)CC4)c(O)ccc3c2=O)cc(C)c1Cl` [NCGC00101140-01], the concentration at half-maximal activity (AC50) was determined as 0.75 µM.

`CC1(c2ccccc2)CC(c2ccccc2)=Nc2nonc2N1` (stereo not drawn) [MLS000079110-01]: the AC50 stood at 5.31 µM.

Regarding `CCOC(=O)c1nnn(-c2nonc2N)c1-c1ccc(OC)cc1` [MLS000043574-01], the AC50 is 5.31 µM.

Regarding `CC1CCN(Cc2c(O)ccc3c(=O)c(Oc4ccccc4Cl)c(C(F)(F)F)oc23)CC1` [NCGC00101482-01], the half-maximal activity concentration (AC50) was found to be 1.33 µM.

For the compound `CCOc1ccc(C2C(C(=O)Nc3ccccc3)=C(C)N=c3sc(=Cc4cccc(OCC(=O)O)c4)c(=O)n32)cc1` (stereo not drawn) [MLS000705052-01], the concentration at half-maximal activity (AC50) is 5.31 µM.

With `CN(C)CC1CSCCC1(O)c1ccccc1Cl` (stereo not drawn) [MLS000546783-01], the concentration at half-maximal activity (AC50) is 5.96 µM.

As to `O=c1cc(-c2cccnc2)oc2c(-c3ccccc3Oc3ccccc3)nccc12` [NCGC00416761-01], the AC50 was 17.2 µM.

Consider `CC(C)CNC(=O)c1nc(-c2ccc(Cl)cc2)c2cnccn12` [NCGC00476461-01], for which the AC50 is 8.63 µM.

`COc1cccc(CN2C(=O)OC3(CCN(Cc4ccccc4OC)CC3)C2(C)c2cccnc2)c1` (stereo not drawn) [NCGC00415564-01]: the AC50 is 4.73 µM.

In the case of `COc1cccc(/C(C#N)=C/c2c(-c3ccc(Cl)cc3)nc3c(C)cccn23)c1` [MLS000326878-01], the concentration at half-maximal activity (AC50) amounted to 5.96 µM.

In the case of `COc1ccccc1NC(=O)CSc1nc2c(oc3ccccc32)c(=O)n1-c1ccc(C)cc1` [NCGC00112704-01], the AC50 turned out to be 15 µM.

On to `CCCC(O)c1nc2ccccc2n1CCCCOc1ccc(OC)cc1` (stereo not drawn) [NCGC00119455-01], for which the concentration at half-maximal activity (AC50) is 15 µM.

Take `O=C1NCc2ccccc2CC12CCCCN2CC1CC=CCC1` (stereo not drawn) [NCGC00377392-01]: the AC50 is 2.34 µM.

As for `Cc1cccc(CN2CCCN(Cc3ccncc3)C(c3ccccc3)CC(=O)NCC2)c1` (stereo not drawn) [NCGC00467184-01], the AC50 stood at 4.22 µM.

Take `COc1cc(NC(=O)Cn2c(=O)n(CC3CCC(C(=O)NCCc4ccccc4)CC3)c(=O)c3ccccc32)cc(OC)c1` (stereo not drawn) [NCGC00106543-01]: the AC50 was 5.96 µM.

`CC(=O)Nc1ccc2nnc(-c3ccc(C(=O)N4CCCCCC4)cc3)n2c1` [NCGC00429830-01]: the AC50 was 8.41 µM.

With `O=C(NCc1cccs1)c1nc(-c2cccc(C(F)(F)F)c2)c2cnccn12` [NCGC00476439-01], the AC50 worked out at 9.44 µM.

As to `SC(=NCc1ccccc1)N1CCn2cccc2C1c1cccnc1` (stereo not drawn) [MLS000683224-01], the half-maximal activity concentration (AC50) came to 9.44 µM.

For the compound `COc1ccc(-c2cc3ccc(O)c(CN4CCCC(C)C4)c3oc2=O)cc1` (stereo not drawn) [NCGC00134281-01], the AC50 was found to be 2.37 µM.

Consider `CCn1cc(CN2CCCC(COc3ccccc3C(=O)N3CCCC3)C2)c2ccccc21` (stereo not drawn) [NCGC00427142-01], for which the concentration at half-maximal activity (AC50) came out at 8.41 µM.

Turning to `O=S(=O)(c1ccc(F)cc1)N1CCN(/C(S)=N/CCc2ccccc2)CC1` [MLS001035761-01], the concentration at half-maximal activity (AC50) came to 5.96 µM.

Take `COc1ccc(C(=O)Nc2nc3c(s2)C[C@@H]2[C@](C)(CO)[C@H](O)CC[C@@]2(C)[C@@H]3CC(=O)NCc2ccco2)cc1` [NCGC00421299-01]: the AC50 was 2.66 µM.

As for `C=CCOC(=O)C1=C[C@@H](c2ccc(C(F)(F)F)cc2)[C@H](CCCO)[C@@H](OCC)O1` [MLS000766375-01], the half-maximal activity concentration (AC50) was determined as 7.5 µM.

Take `COc1ccc(NC(=O)c2c(C)oc3ccc(O)c(CN4CCCCCC4)c23)cc1Cl` [NCGC00115677-01]: the AC50 came out at 1.88 µM.

For `CCCc1c(C)[nH]c2ccccc2c1=O` [MLS000067721-01], the AC50 worked out at 7.5 µM.

In the case of `CC1(c2ccccc2)N(Cc2ccc(O)cc2)C(=O)OC12CCN(Cc1c[nH]c3ccccc13)CC2` (stereo not drawn) [NCGC00415668-01], the concentration at half-maximal activity (AC50) came to 5.31 µM.

Turning to `Cc1cc(OC2CN([S+](=O)([O-])c3cccs3)C2)ccc1F` [NCGC00476695-01], the AC50 was found to be 15.3 µM.

Turning to `CN(Cc1ccccc1)Cc1cc(C[C@@H]2CC[C@H](O)[C@@H](CNCc3ccccc3)O2)no1` [NCGC00393466-01], the half-maximal activity concentration (AC50) was 4.73 µM.

Consider `CCN1CCN(c2cc(C)c3cc(NC(=O)/C=C/c4cccc(OC)c4OC)ccc3n2)CC1` [NCGC00103854-01], for which the half-maximal activity concentration (AC50) came out at 5.96 µM.

Consider `COC(=O)c1cc(O)cc(OC)c1Oc1cc(C)cc(O)c1C(=O)O` [MLS000863583-01], for which the half-maximal activity concentration (AC50) was found to be 4.22 µM.

Regarding `CCOc1ccc(-c2nonc2NC(=O)c2ccc(C)cc2)cc1OCC` [NCGC00116031-01], the AC50 is 1.68 µM.

For `O=C(NC1=C(Nc2ccc(F)cc2)C(=O)c2ccccc2C1=O)c1ccc(Cl)cc1` [MLS000375026-01], the half-maximal activity concentration (AC50) was 0.841 µM.

`CCCCCC(O)(c1ccc(OC)cc1)C(CN1CCOCC1)c1ccccc1` (stereo not drawn) [MLS001198946-01]: the AC50 came to 2.11 µM.

Turning to `CCc1cc(=O)oc2cc(C)cc(OCC(=O)NCC(O)c3ccccc3)c12` (stereo not drawn) [MLS001158251-01], the concentration at half-maximal activity (AC50) was found to be 6.68 µM.

Regarding `COc1ccc(-c2noc(-c3cccn3CC(=O)Nc3ccccc3C)n2)cc1F` [NCGC00445484-01], the half-maximal activity concentration (AC50) worked out at 5.31 µM.

With `O=C(c1ccccc1)N1CCC(Cc2nnc(-c3ccncc3)[nH]2)CC1` [NCGC00458326-01], the AC50 stood at 15 µM.

Take `Cc1ccc(CN2C3CCCC2CC(NC(=O)Nc2cccc(F)c2)C3)cc1` (stereo not drawn) [MLS000709814-01]: the AC50 turned out to be 10.6 µM.

Regarding `COc1ccc(-n2cc(CNC3CCN(C)CC3)c(-c3cccc(F)c3)n2)cc1` [MLS000732463-01], the AC50 amounted to 10.6 µM.

As for `Cc1ccc(CNC(=O)c2ccc(N3CCC4(CC3)CC(c3cccc(Br)c3)=NO4)c(NC(=O)c3ccco3)c2)cc1` [MLS001074407-01], the AC50 was found to be 8.41 µM.

In the case of `CC(C)(C)c1ccc(C(=O)N2CCN(C(=O)c3nnn4c3COC(c3ccccc3)C4)CC2)cc1` (stereo not drawn) [NCGC00449161-01], the AC50 amounted to 10.6 µM.

Regarding `O=C1NCc2ccccc2CC12CCCN(CC1=CCCCC1)C2` (stereo not drawn) [NCGC00377566-01], the AC50 was 3.31 µM.

On to `CCn1c(SCc2ccc(C#N)cc2)nnc1-c1ccc(S(=O)(=O)N2CCCCC2)cc1` [MLS000032588-01], for which the AC50 turned out to be 6.68 µM.

For the compound `Cc1cc2nc3n(c(=O)c2n1CC(=O)Nc1ccccc1C(C)C)CCCCC3` [NCGC00455404-01], the concentration at half-maximal activity (AC50) stood at 8.41 µM.

Take `Cc1oc2ccc(O)c(CN3CCCC(C)C3)c2c1C(=O)Nc1ccccc1` (stereo not drawn) [NCGC00115528-01]: the AC50 was found to be 2.11 µM.

`Cc1cn2nc(C(=O)Nc3ccc(N(C)C)cc3)cc2c(N(C)Cc2ccccc2)n1` [NCGC00454159-01]: the AC50 was 15 µM.

Consider `Cn1nc(C2CCCCC2)cc1[C@H]1CN2CC[C@H]1C[C@@H]2CNC(=O)c1cccs1` [NCGC00399662-01], for which the AC50 was found to be 13.7 µM.

`O=C(Nc1nccs1)C1c2ccccc2C(=O)N(C2CCCC2)C12CCCC2` (stereo not drawn) [NCGC00423502-01]: the half-maximal activity concentration (AC50) turned out to be 4.22 µM.

Take `CCOC(=O)c1nnn(-c2nonc2N)c1-c1ccc(Cl)cc1` [MLS000727794-01]: the AC50 came out at 5.31 µM.

For the origin of these results see article PMC7822874, “Chemoprotective antimalarials identified through quantitative high-throughput screening of Plasmodium blood and liver stage parasites” (Scientific Reports, 2021).
